Laboratory results: patent US20230416238A1, “N-[(1,3-BENZOXAZOL-2-YL)-HETEROCYCLE]AMIDE DERIVATIVES FOR THE TREATMENT AND PROPHYLAXIS OF HEPATITIS B VIRUS INFECTION” (Hoffmann-La Roche Inc., priority 2020, published 2023)
pIC50: −log10 of the molar value.

Legend:
Format in all cases: cell-based
HBsAg = experiment: PHH HBV natural infection assay, HBsAg (alphalisa); details: Hepatitis B virus, Hepatocyte, read-out: HBsAg IC50
Method in brief: (§1)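 Primary human hepatocytes infected with HBV at 200 GE/cell plus 4% PEG8000 for 24 h, then sandwich-cultured 72 h in medium with 1% DMSO. Compound applied twice at 72-h intervals; supernatant HBsAg and HBeAg quantified by AlphaLISA.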

[1] = Cytotoxicity in PHH natural infection assay (Cell Counting Kit-8); details: HBV-infected primary human hepatocytes, CCK8
Method in brief: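 HBV-infected primary human hepatocytes (200 GE/cell, 4% PEG8000, 24 h), then sandwich-cultured 72 h. Cells dosed at varying concentrations for two 72-hour cycles, with medium refreshed. Cytotoxicity read by CCK-8 at end of treatment.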

HBeAg = experiment: PHH HBV natural infection assay, HBeAg (alphalisa); details: Hepatitis B virus, Hepatocyte, read-out: HBeAg IC50
Method in brief: as §1

Compound	pIC50 (HBsAg)	CC50 at 144 h [1] [µM]	pIC50 (HBeAg)
NC(=O)c1ccc(C(=O)NCC2CCN(c3nc4cc(Cl)ccc4o3)CC2)o1 [Example 1, N2-[[1-(5-Chloro-1,3-benzoxazol-2-yl)-4-piperidyl]methyl]furan-2,5-dicarboxamide]	5.03	> 10	5.15
O=C(NC1CCC2(CC1)CCN(c1nc3cc(Cl)ccc3o1)CC2)c1ccc(C(F)(F)F)o1 [Example 115, N-[3-(5-chloro-1,3-benzoxazol-2-yl)-3-azaspiro[5.5]undecan-9-yl]-5-(trifluoromethyl)furan-2-carboxamide]	5.54	> 100	5.58
O=C(NC1CCN(c2nc3cc(Cl)ccc3o2)CC1)c1ccc(C(F)(F)F)o1 [Example 12, N-[1-(5-chloro-1,3-benzoxazol-2-yl)-4-piperidyl]-5-(trifluoromethyl)furan-2-carboxamide]	5.34	> 100	5.26
COc1cc(C(=O)NC2CC3(C2)CN(c2nc4ccc(Cl)cc4o2)C3)ccn1 [Example 38, N-[2-(6-chloro-1,3-benzoxazol-2-yl)-2-azaspiro[3.3]heptan-6-yl]-2-methoxy-pyridine-4-carboxamide]	5.16	> 10	5.24
O=C(NC1CCC2(CC1)CCN(c1nc3cc(Cl)ccc3o1)CC2)C1CCC(F)(F)CC1 [Example 102, N-[3-(5-chloro-1,3-benzoxazol-2-yl)-3-azaspiro[5.5]undecan-9-yl]-4,4-difluoro-cyclohexanecarboxamide]	5.44	> 100	5.42
CC1(C(=O)NC2CCC3(CC2)CCN(c2nc4cc(Cl)ccc4o2)CC3)CC[S+]([O-])CC1 (stereo not drawn) [Example 98, N-[3-(5-chloro-1,3-benzoxazol-2-yl)-3-azaspiro[5.5]undecan-9-yl]-4-methyl-1-oxo-thiane-4-carboxamide]	5.37	> 100	5.65
O=C(NCC1CCN(c2nc3cc(Cl)ccc3o2)CC1)C1CS(=O)(=O)C1 [Example 10, N-[[1-(5-chloro-1,3-benzoxazol-2-yl)-4-piperidyl]methyl]-1,1-dioxo-thietane-3-carboxamide]	5.01	> 100	4.98
CS(=O)(=O)c1cc(C(=O)NC2CC3(C2)CN(c2nc4cc(Cl)ccc4o2)C3)ccn1 [Example 52, N-[2-(5-chloro-1,3-benzoxazol-2-yl)-2-azaspiro[3.3]heptan-6-yl]-2-methylsulfonyl-pyridine-4-carboxamide]	5.82	> 100	5.90
O=C(NC1C2CN(c3nc4cc(Cl)ccc4o3)CC21)c1ccc(C(F)(F)F)o1 (stereo not drawn) [Example 125, N-[3-(5-chloro-1,3-benzoxazol-2-yl)-3-azabicyclo[3.1.0]hexan-6-yl]-5-(trifluoromethyl)furan-2-carboxamide]	5.32	> 100	5.27
N=S(=O)(CC1CC1)c1ccc(C(=O)NC2CCC3(CC2)CCN(c2nc4cc(Cl)ccc4o2)CC3)o1 (stereo not drawn) [Example 119, N-[3-(5-chloro-1,3-benzoxazol-2-yl)-3-azaspiro[5.5]undecan-9-yl]-5-(cyclopropylmethylsulfonimidoyl)furan-2-carboxamide]	5.72	85.8	5.87
O=C(NC1CCC2(CC1)CCN(c1nc3ccc(Cl)cc3o1)CC2)C1CS(=O)(=O)C1 [Example 89, N-[3-(6-chloro-1,3-benzoxazol-2-yl)-3-azaspiro[5.5]undecan-9-yl]-1,1-dioxo-thietane-3-carboxamide]	5.17	88.1	5.41
CS(=O)(=O)c1cncc(C(=O)NCC2CCN(c3nc4cc(Cl)ccc4o3)CC2)c1 [Example 9, N-[[1-(5-chloro-1,3-benzoxazol-2-yl)-4-piperidyl]methyl]-5-methylsulfonyl-pyridine-3-carboxamide]	5.82	> 10	5.74
CS(=O)(=O)Cc1ccc(C(=O)NC2CC3(C2)CN(c2nc4cc(Cl)ccc4o2)C3)o1 [Example 51, N-[2-(5-chloro-1,3-benzoxazol-2-yl)-2-azaspiro[3.3]heptan-6-yl]-5-(methylsulfonylmethyl)furan-2-carboxamide]	5.65	> 100	5.71
COc1cc(C(=O)NC2CCC3(CC2)CCN(c2nc4cc(Cl)ccc4o2)CC3)ccn1 [Example 106, N-[3-(5-chloro-1,3-benzoxazol-2-yl)-3-azaspiro[5.5]undecan-9-yl]-2-methoxy-pyridine-4-carboxamide]	6.23	> 100	6.32
C[S@](=N)(=O)c1ccc(C(=O)NC2CC3(C2)CN(c2nc4cc(Cl)ccc4o2)C3)o1 [Example 47, N-[2-(5-chloro-1,3-benzoxazol-2-yl)-2-azaspiro[3.3]heptan-6-yl]-5-[(S)-methylsulfonimidoyl]furan-2-carboxamide]	5.37	> 100	5.64
CC1(C(=O)NC2CCC3(CC2)CCN(c2nc4cc(Cl)ccc4o2)CC3)CCS(=O)(=O)CC1 [Example 99, N-[3-(5-chloro-1,3-benzoxazol-2-yl)-3-azaspiro[5.5]undecan-9-yl]-4-methyl-1,1-dioxo-thiane-4-carboxamide]	5.58	94.1	5.69
O=C(CCC(F)(F)F)NC1CC2(C1)CN(c1nc3cc(Cl)ccc3o1)C2 [Example 25, N-[2-(5-chloro-1,3-benzoxazol-2-yl)-2-azaspiro[3.3]heptan-6-yl]-4,4,4-trifluoro-butanamide]	5.01	> 100	4.99
CC1(C(=O)NC2CCC3(CC2)CCN(c2nc4cc(Cl)ccc4o2)CC3)CCSCC1 [Example 87, N-[3-(5-chloro-1,3-benzoxazol-2-yl)-3-azaspiro[5.5]undecan-9-yl]-4-methyl-tetrahydrothiopyran-4-carboxamide]	5.85	> 100	5.95
CC1(C(=O)NC2CC3(C2)CN(c2nc4cc(Cl)ccc4o2)C3)CCS(=O)(=O)C1 (stereo not drawn) [Example 33, N-[2-(5-chloro-1,3-benzoxazol-2-yl)-2-azaspiro[3.3]heptan-6-yl]-3-methyl-1,1-dioxo-thiolane-3-carboxamide]	5.35	> 100	5.36
COc1cc(C(=O)NC2CC3(C2)CN(c2nc4cc(Cl)ccc4o2)C3)ccn1 [Example 43, N-[2-(5-chloro-1,3-benzoxazol-2-yl)-2-azaspiro[3.3]heptan-6-yl]-2-methoxy-pyridine-4-carboxamide]	5.76	84.8	6.00
CC(C)(O)C(=O)NC1CC2(C1)CN(c1nc3cc(Cl)ccc3o1)C2 [Example 29, N-[2-(5-chloro-1,3-benzoxazol-2-yl)-2-azaspiro[3.3]heptan-6-yl]-2-hydroxy-2-methyl-propanamide]	5.15	> 100	5.13
O=C(NCC1CCN(c2nc3cc(Cl)ccc3o2)CC1)c1ccnc(S(=O)(=O)C2CC2)c1 [Example 3, N-[[1-(5-chloro-1,3-benzoxazol-2-yl)-4-piperidyl]methyl]-2-cyclopropylsulfonyl-pyridine-4-carboxamide]	5.11	> 10	5.20
O=C(NC1CC2(CCN(c3nc4cc(Cl)ccc4o3)C2)C1)C1CCS(=O)(=O)C1 (stereo not drawn) [Example 71, N-[6-(5-chloro-1,3-benzoxazol-2-yl)-6-azaspiro[3.4]octan-2-yl]-1,1-dioxo-thiolane-3-carboxamide]	5.09	94.1	5.22
O=C(NC1CCC2(CC1)CCN(c1nc3cc(Cl)ccc3o1)CC2)c1ccc(S(=O)(=O)NC(=O)C2CCC2)o1 [Example 111, N-[3-(5-chloro-1,3-benzoxazol-2-yl)-3-azaspiro[5.5]undecan-9-yl]-5-(cyclobutanecarbonylsulfamoyl)furan-2-carboxamide]	5.26	85.7	5.46
CS(=N)(=O)c1ccc(C(=O)NC2CCC3(CC2)CCN(c2nc4cc(Cl)ccc4o2)CC3)o1 (stereo not drawn) [Example 109, N-[3-(5-chloro-1,3-benzoxazol-2-yl)-3-azaspiro[5.5]undecan-9-yl]-5-(methylsulfonimidoyl)furan-2-carboxamide]	5.23	> 100	5.33
CS(=O)(=O)CCC(=O)NC1CCC2(CC1)CCN(c1nc3cc(Cl)ccc3o1)CC2 [Example 83, N-[3-(5-chloro-1,3-benzoxazol-2-yl)-3-azaspiro[5.5]undecan-9-yl]-3-methylsulfonyl-propanamide]	5.60	98.6	5.75
O=C(NC1CCC2(CC1)CCN(c1nc3cc(Cl)ccc3o1)CC2)[C@H]1CCS(=O)(=O)C1 [Example 92, (3R)—N-[3-(5-chloro-1,3-benzoxazol-2-yl)-3-azaspiro[5.5]undecan-9-yl]-1,1-dioxo-thiolane-3-carboxamide]	6.07	83.9	6.12
O=C(NC1CCC2(CC1)CCN(c1nc3cc(Cl)ccc3o1)CC2)c1ccc(S(=O)(=O)CC2CC2)o1 [Example 121, N-[3-(5-chloro-1,3-benzoxazol-2-yl)-3-azaspiro[5.5]undecan-9-yl]-5-(cyclopropylmethylsulfonyl)furan-2-carboxamide]	5.81	> 100	5.94
CC(C)(C)C(=O)NC1CC2(C1)CN(c1nc3cc(Cl)ccc3o1)C2 [Example 27, N-[2-(5-chloro-1,3-benzoxazol-2-yl)-2-azaspiro[3.3]heptan-6-yl]-2,2-dimethyl-propanamide]	5.25	> 100	5.43
